How the values were obtained:
PTP = settings: read-out: IC50, PTP inhibitor; cited from earlier work
ovarian grafts = assay: Ovarian grafting under kidney capsule of FSH-treated hosts: graft weights and follicle counting; type: in vivo, mice; settings: ovaries treated 30 min. with different concentrations, grafted 5 days, hosts treated daily with FSH
Protocol: FIG. 3. Additive effects of Hippo signaling disruption and Akt stimulation promoted secondary follicle growth. A) Secondary follicles are responsive to IVA treatment. Secondary follicles (115 um in diameter) were isolated from mice at day 10 of age and cultured in vitro with the standard IVA protocol (first day with bPV(hopic) at 3 mM and 740YP at 15 ug/ml, followed by one more day with 740YP alone), followed by treatment with daily FSH (100 ng/ml) for two more days (IVA+FSH). The control groups were either treatment with media alone for four days or treated with the IVA reagent for two days followed by media alone (IVA alone). B) Ovarian fragmentation and IVA treatment led to additive effects on ovarian weight gain and secondary follicle growth. Paired ovaries from mice at day 10 of age were fragmented into three pieces. Fragments from one side were treated with the IVA protocol (bpV(hopic) at 30 uM and 740YP at 150 ng/ml for one day, followed by one more day with 740YP only) whereas fragments from the contralateral side were incubated in media alone. Ovarian fragments were then allo-transplanted into kidney capsules of adult ovariectomized mice with hosts injected with FSH (daily at 1 IU/animal). Five 5 days later, ovarian grafts were retrieved, fixed and weighted. Left panel: graft weights; right panel: Follicle dynamics of grafted ovarian fragments. Percentages of follicles at different stages were determined based on serial sections of grafts. C, Follicle dynamics before and after grafting of intact and fragmented murine ovaries with or without treatment with Akt stimulators. Left: total follicle numbers, Right: follicle dynamics. n=4. Same letter symbols indicate significant differences (p<0.05). D-F. Vitrified human cortical strips were thawed and fragmented into cubes before treatment with Akt stimulators for 2 days followed by grafting into immune-deficient mice for 4 weeks. D. Cortical strips before grafting. Arrow: a secondary follicle, arrowheads: primordial/primary follicles. Scale bar, 100 μm. E. A kidney graft in situ (left) and after isolation (right), showing an antral follicle. F. Histology of two large antral follicles with the side view of one showing an oocyte at the germinal vesicle stage (arrow). Scale bar, 1 mm. Mean±SEM; * p<0.05.
FIG. 7. Pre-treatment with verteporfin and CCN2 antibodies suppressed fragmentation-induced ovarian growth. A, Pretreatment with verteporfin suppressed fragmentation-induced increases in CCN2, but not AMH, transcript levels. Juvenile mice were injected i.p. with verteporfin for 3 h before retrieving ovaries for fragmentation. At 4 h after incubation, transcript levels for CCN2 and AMH were determined by real-time RT-PCR. n=6-12. […] Ovaries from juvenile mice pre-injected with verteporf in for 3 h were fragmented and incubated for 1 h before grafting into FSH-treated hosts for 5 days followed by determination of graft weights. Numbers in parentheses are number of samples used. C, Follicle dynamics of intact and fragmented ovarian grafts from animals with or without verteporf in (VP) pretreatment. n=3-5. D, Incubation of fragmented ovaries with CCN2 antibodies suppressed ovarian weight increases. Paired ovaries were fragmented into 3 pieces followed by incubation with CCN2 antibodies or non-immune-IgG for 18 h before grafting for 5 days. Mean±SEM; *p<0.05.
Left upper panel: Paired ovaries from day 10 mice were treated with or without JASP (10 μM) for 30 min. before analyses of F- and G-actin content. Left lower panel: Real-time RT-PCR analyses of CCN2 transcript levels after 30 min. exposure to JASP. Right panel: Immunoblotting analyses of CCN2 protein levels after 30 min. treatment with JASP. Upper panel: Immunoblotting analyses. Lower panel: quantitative analyses of densitometric scanning data. Numbers in parentheses are number of samples used. * p<0.05. […]

F-actin/G-actin = assay: F-actin and G-actin content of ovaries after JASP; type: cell-based; settings: 10 μM for 30 min., ovaries from day 10 mice
Protocol: (§1) Left upper panel: Paired ovaries from day 10 mice were treated with or without JASP (10 μM) for 30 min. before analyses of F- and G-actin content. Left lower panel: Real-time RT-PCR analyses of CCN2 transcript levels after 30 min. exposure to JASP. Right panel: Immunoblotting analyses of CCN2 protein levels after 30 min. treatment with JASP. Upper panel: Immunoblotting analyses. Lower panel: quantitative analyses of densitometric scanning data. Numbers in parentheses are number of samples used. * p<0.05. […] Ovaries from day 10 mice were treated with or without different concentrations of JASP for 30 min. before grafting into adult hosts treated daily with FSH. Five days later, graft weights were determined.
Paired ovaries from CD-1 mice at different ages were excised in L-15 medium. One ovary from each animal was cut into 2-4 pieces, whereas the contralateral one remained intact. Ovaries were transferred to culture plate inserts (Millipore, Bedford, Mass.) and cultured in MEMa medium with 3 mg/ml BSA, 0.23 mM sodium pyruvate, 50 ug/ml vitamin C, 30 mIU/ml FSH, 50 mg/L streptomycin sulfate, and 75 mg/L penicillin G. After 30 min. of incubation, media were replaced and incubated for another 30 min. […]
Ratios of F-actin to G-actin in intact and fragmented ovaries were determined by F-actin/G-actin in vivo assay kit (Cytoskeleton, Denver, Colo.). […]

CCN2 = CCN2 transcript and protein levels of ovaries after JASP; type: cell-based; settings: 30 min. exposure, ovaries from day 10 mice
Protocol: as §1
Paired ovaries from CD-1 mice at different ages were excised in L-15 medium. One ovary from each animal was cut into 2-4 pieces, whereas the contralateral one remained intact. […]
Proteins from NIH3T3 cells or ovaries of mice at day 10 of age were extracted using M-PER Mammalian Protein Extraction Reagent (Thermo, Rockford, Ill.) containing a protease inhibitor cocktail (Thermo). […] Signals were developed using enhanced chemiluminescence (ECL Kit, GE Healthcare) and quantitated using a densitometer. […]

| Compound | IC50 (PTP) [µM] | weights of ovarian grafts (ovarian grafts) | actin polymerization (F- and G-actin content) (F-actin/G-actin) | CCN2 expression (transcript and protein) (CCN2) |
| --- | --- | --- | --- | --- |
| monoperoxo(picolinato)oxovanadate(V) | 18 |  |  |  |
| C/C1=C\[C@H](C)C[C@H](C)OC(=O)C[C@H](c2ccc(O)cc2)NC(=O)[C@@H](Cc2c(Br)[nH]c3ccccc23)N(C)C(=O)[C@H](C)NC(=O)[C@@H](C)C1 [JASP, jasplakinolide] |  | increased weights of ovarian grafts | increased actin polymerization | increased |
